Ki data for twelve molecules are collected here from patent publication US8710065B2, “Tricyclic inhibitors of kinases” (AbbVie Inc., priority 2011, dated 2014).

The target of this test is T1, GST-tagged-Wee1 kinase (Homo sapiens, UniProt P30291).
T1 construct: purchased Carnabio (Carna Biosciences) 05-177
T1 sequence (P30291 whole entry): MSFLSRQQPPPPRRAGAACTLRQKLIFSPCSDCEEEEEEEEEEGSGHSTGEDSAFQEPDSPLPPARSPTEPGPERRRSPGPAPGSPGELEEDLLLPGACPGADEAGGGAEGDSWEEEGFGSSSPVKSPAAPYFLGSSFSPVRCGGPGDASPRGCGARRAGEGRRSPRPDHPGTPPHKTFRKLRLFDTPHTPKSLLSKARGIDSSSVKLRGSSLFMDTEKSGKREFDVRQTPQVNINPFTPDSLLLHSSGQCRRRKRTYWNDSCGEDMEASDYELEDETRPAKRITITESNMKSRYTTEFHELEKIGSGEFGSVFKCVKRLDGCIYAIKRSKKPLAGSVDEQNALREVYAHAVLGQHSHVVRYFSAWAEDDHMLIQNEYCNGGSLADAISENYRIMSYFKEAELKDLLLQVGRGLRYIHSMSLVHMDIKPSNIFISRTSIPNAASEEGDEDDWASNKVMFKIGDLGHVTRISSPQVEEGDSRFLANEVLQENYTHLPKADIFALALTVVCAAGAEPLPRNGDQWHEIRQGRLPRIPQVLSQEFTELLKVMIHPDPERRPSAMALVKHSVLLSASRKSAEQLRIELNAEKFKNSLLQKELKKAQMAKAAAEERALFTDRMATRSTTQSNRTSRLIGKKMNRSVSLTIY
Briefly: Wee1 time-resolved fluorescence equilibrium binding assay (displacement of Oregon Green-labeled ATP-competitive kinase probe). The conditions noted are these: read-out: Wee-1 inhibition (Ki). The method, boiled down:
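Time-resolved fluorescence equilibrium binding with GST-Wee1, measuring displacement of a rapidly reversible Oregon Green-labelled ATP-competitive probe by competitive inhibitors; values reported as Ki.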
As for `O=c1c2cnc(Nc3ccc4snnc4c3)nc2n2ccnc2n1-c1c(Cl)cccc1Cl` [Example 181, 2-(1,2,3-benzothiadiazol-5-ylamino)-6-(2,6-dichlorophenyl)imidazo[1,2-a]pyrimido[5,4-e]pyrimidin-5(6H)-one], the Ki fell in the range of 10 to 100 nM.
Turning to `O=C(c1ccc(Nc2ncc3c(=O)n(-c4ccccc4Cl)c4nccn4c3n2)cc1)N1CCC(O)CC1` [Example 48, 6-(2-chlorophenyl)-2-({4-[(4-hydroxypiperidin-1-yl)carbonyl]phenyl}amino)imidazo[1,2-a]pyrimido[5,4-e]pyrimidin-5(6H)-one], the Ki lay within 10 to 100 nM.
Next, `CC1(C)CN(CC(F)(F)F)Cc2cc(Nc3ncc4c(=O)n(-c5ccccc5Cl)c5nccn5c4n3)ccc21` [Example 162, 6-(2-chlorophenyl)-2-{[4,4-dimethyl-2-(2,2,2-trifluoroethyl)-1,2,3,4-tetrahydroisoquinolin-7-yl]amino}imidazo[1,2-a]pyrimido[5,4-e]pyrimidin-5(6H)-one]: 10 to 100 nM.
Next, `O=c1c2cnc(Nc3ccc(N4CCC(O)CC4)cc3)nc2n2ccnc2n1-c1ccccc1Cl` [Example 138, 6-(2-chlorophenyl)-2-{[4-(4-hydroxypiperidin-1-yl)phenyl]amino}imidazo[1,2-a]pyrimido[5,4-e]pyrimidin-5(6H)-one]: < 10 nM; `O=c1c2cnc(Nc3ccc4c(c3)CC(NC3CC3)C4)nc2n2ccnc2n1-c1c(Cl)cccc1Cl` (stereo not drawn) [Example 295, 2-{[2-(cyclopropylamino)-2,3-dihydro-1H-inden-5-yl]amino}-6-(2,6-dichlorophenyl)imidazo[1,2-a]pyrimido[5,4-e]pyrimidin-5(6H)-one]: < 10 nM.
Next, `O=c1c2cnc(Nc3ccc(OC4CCNCC4)cc3)nc2n2ccnc2n1-c1ccccc1Cl` [Example 290, 6-(2-chlorophenyl)-2-{[4-(piperidin-4-yloxy)phenyl]amino}imidazo[1,2-a]pyrimido[5,4-e]pyrimidin-5(6H)-one]: < 10 nM; `CN(CCOC(=O)c1ccc(Nc2ncc3c(=O)n(-c4c(Cl)cccc4Cl)c4nccn4c3n2)cc1)C1CC1` [Example 201, 2-[cyclopropyl(methyl)amino]ethyl 4-{[6-(2,6-dichlorophenyl)-5-oxo-5,6-dihydroimidazo[1,2-a]pyrimido[5,4-e]pyrimidin-2-yl]amino}benzoate]: < 10 nM.
For `CC(C)N1CCN(c2ccc(Nc3ncc4c(=O)n(-c5ccccc5Cl)c5nccn5c4n3)cc2)CC1` [Example 29, 6-(2-chlorophenyl)-2-({4-[4-(propan-2-yl)piperazin-1-yl]phenyl}amino)imidazo[1,2-a]pyrimido[5,4-e]pyrimidin-5(6H)-one], the Ki was < 10 nM.
Next, `Cc1cc(Nc2ncc3c(=O)n(-c4c(Cl)cccc4Cl)c4nccn4c3n2)ccc1N1CCCNCC1` [Example 345, 2-{[4-(1,4-diazepan-1-yl)-3-methylphenyl]amino}-6-(2,6-dichlorophenyl)imidazo[1,2-a]pyrimido[5,4-e]pyrimidin-5(6H)-one]: 10 to 100 nM; `CC(=O)N1CCC(Nc2ccc(Nc3ncc4c(=O)n(-c5c(Cl)cccc5Cl)c5nccn5c4n3)cc2)CC1` [Example 321, 2-({4-[(1-acetylpiperidin-4-yl)amino]phenyl}amino)-6-(2,6-dichlorophenyl)imidazo[1,2-a]pyrimido[5,4-e]pyrimidin-5(6H)-one]: < 10 nM.
As for `CC(C)(C)OC(=O)N1CCc2ccc(Nc3ncc4c(=O)n(-c5ccccc5Cl)c5nccn5c4n3)cc2C1` [Example 20, tert-butyl 7-{[6-(2-chlorophenyl)-5-oxo-5,6-dihydroimidazo[1,2-a]pyrimido[5,4-e]pyrimidin-2-yl]amino}-3,4-dihydroisoquinoline-2(1H)-carboxylate], the inhibition constant (Ki) was 10 to 100 nM.
Turning to `CN1Cc2cc(Nc3ncc4c(=S)n(-c5ccccc5Cl)c5nccn5c4n3)ccc2C(C)(C)C1` [Example 334, 6-(2-chlorophenyl)-2-[(2,4,4-trimethyl-1,2,3,4-tetrahydroisoquinolin-7-yl)amino]imidazo[1,2-a]pyrimido[5,4-e]pyrimidine-5(6H)-thione], the Ki was < 10 nM.

The Ki is a measure of affinity in units of concentration, obtained from inhibition or displacement.
